Assay results taken from article PMC11882969 (Nature Communications, 2025).
Where “and” joins values, the source holds several entries; their conditions need not be identical. Identical values can stand only once. Like-named read-outs stand apart in the source and are kept apart here.

What was measured:
hCB1 = hCB1 (Homo sapiens, UniProt P21554); assay: bioSensAll ebBRET signaling profiling, hCB1; format: cell-based; set-up: host or cells: HEK293SL cells, transient PEI transfection; conditions: for Gi1 hCB1 response: Gi1 biosensor; for Gi1 hCB1 / GoB hCB1: single replicate values, FigS6a; for Emax [95% CI]: normalized to CP-55,940; for EC50: read-out: EC50 [95% CI]
Chain of hCB1 (P21554 whole entry): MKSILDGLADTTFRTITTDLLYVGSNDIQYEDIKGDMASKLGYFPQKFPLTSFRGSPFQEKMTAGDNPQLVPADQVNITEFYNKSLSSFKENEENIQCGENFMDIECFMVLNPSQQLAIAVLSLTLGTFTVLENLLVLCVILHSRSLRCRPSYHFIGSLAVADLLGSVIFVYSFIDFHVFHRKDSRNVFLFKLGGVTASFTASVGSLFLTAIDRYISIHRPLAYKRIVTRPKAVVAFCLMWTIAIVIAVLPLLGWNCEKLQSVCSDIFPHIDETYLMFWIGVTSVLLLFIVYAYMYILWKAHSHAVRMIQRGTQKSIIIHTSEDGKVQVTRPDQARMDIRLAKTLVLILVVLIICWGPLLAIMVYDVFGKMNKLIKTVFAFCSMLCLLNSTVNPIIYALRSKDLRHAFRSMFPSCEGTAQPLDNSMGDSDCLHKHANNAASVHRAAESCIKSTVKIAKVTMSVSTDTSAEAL

CB1 (rCB1) = CB1 (rCB1) (Rattus norvegicus, UniProt P20272); assay: Radioligand competition binding, [3H]-CP-55,940, rat brain membranes
Chain of CB1 (rCB1) (P20272 whole entry): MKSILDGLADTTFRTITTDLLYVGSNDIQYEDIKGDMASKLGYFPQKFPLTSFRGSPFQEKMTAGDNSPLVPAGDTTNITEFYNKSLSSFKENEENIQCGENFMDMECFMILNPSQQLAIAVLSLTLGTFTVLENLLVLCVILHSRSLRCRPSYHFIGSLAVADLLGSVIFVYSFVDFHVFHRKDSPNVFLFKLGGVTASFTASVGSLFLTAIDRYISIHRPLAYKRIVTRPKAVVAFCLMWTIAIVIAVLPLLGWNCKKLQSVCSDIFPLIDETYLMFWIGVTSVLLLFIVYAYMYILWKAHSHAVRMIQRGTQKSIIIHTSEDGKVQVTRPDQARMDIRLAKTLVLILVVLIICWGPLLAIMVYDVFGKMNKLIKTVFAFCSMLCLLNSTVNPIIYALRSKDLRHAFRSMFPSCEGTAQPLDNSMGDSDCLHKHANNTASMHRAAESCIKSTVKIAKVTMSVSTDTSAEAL

Compound: COC(=O)[C@@H]1[C@@H]2CCC[C@@H]2CN1C(=O)c1cc(C)n(-c2cccc(C(F)(F)F)c2)n1 [‘6439]
- Gi1 hCB1 response (hCB1; Log [Compound] (M) -4.22186): 151.018
- Gi1 hCB1 response (hCB1; Log [Compound] (M) -4.63927): 115.678
- Gi1 hCB1 response (hCB1; Log [Compound] (M) -5.05788): 127.496
- Gi1 hCB1 response (hCB1; Log [Compound] (M) -5.47381): 106.412
- Gi1 hCB1 response (hCB1; Log [Compound] (M) -5.89285): 85.038
- Gi1 hCB1 response (hCB1; Log [Compound] (M) -6.31878): 82.8446
- Gi1 hCB1 response (hCB1; Log [Compound] (M) -6.72585): 60.217
- Gi1 hCB1 response (hCB1; Log [Compound] (M) -7.14267): 58.225
- Gi1 hCB1 response (hCB1; Log [Compound] (M) -7.55284): 19.617
- Gi1 hCB1 response (hCB1; Log [Compound] (M) -8): 16.8865
- Gi1 hCB1 response (hCB1; Log [Compound] (M) -8.22186): 14.8945
- Gi1 hCB1 response (hCB1; Log [Compound] (M) -8.39794): 2.361
- Gi1 hCB1 response (hCB1; Log [Compound] (M) -8.68787): 6.703
- Gi1 hCB1 response (hCB1; Log [Compound] (M) -9.15521): 0.8614
- Gi1 hCB1 response (hCB1; Log [Compound] (M) -9.61989): -7.912
- Gi1 hCB1 response (hCB1; Log [Compound] (M) -10.0969): -33.897
- Gi1 hCB1 response (hCB1; Log [Compound] (M) -10.5529): -6.905
- Gi1 hCB1 response (hCB1; Log [Compound] (M) -11.0177): 0.7271
- Gi1 hCB1 response (hCB1; Log [Compound] (M) -11.4949): -12.7913
- Gi1 hCB1 response (hCB1; Log [Compound] (M) -11.9208): -11.6498
- Gi1 hCB1 response (hCB1; Log [Compound] (M) -12.3979): -8.158
- Gi1 hCB1 response (hCB1; Log [Compound] (M) -12.8861): -13.8656
- Gi1 hCB1 response (hCB1; Log [Compound] (M) -13, individual replicate values): 6.815 and -3.369
- Gi1 hCB1 (hCB1; Log [Compound] (M) -4.22186): 102.871
- GoB hCB1 (hCB1; Log [Compound] (M) -4.22186): 99.959
- Gi1 hCB1 (hCB1; Log [Compound] (M) -4.63927): 91.1085
- GoB hCB1 (hCB1; Log [Compound] (M) -4.63927): 101.488
- Gi1 hCB1 (hCB1; Log [Compound] (M) -5.05788): 91.2935
- GoB hCB1 (hCB1; Log [Compound] (M) -5.05788): 96.0026
- Gi1 hCB1 (hCB1; Log [Compound] (M) -5.47381): 93.4364
- GoB hCB1 (hCB1; Log [Compound] (M) -5.47381): 100.139
- Gi1 hCB1 (hCB1; Log [Compound] (M) -5.89285): 89.3202
- GoB hCB1 (hCB1; Log [Compound] (M) -5.89285): 94.2762
- Gi1 hCB1 (hCB1; Log [Compound] (M) -6.31878): 88.4414
- GoB hCB1 (hCB1; Log [Compound] (M) -6.31878): 89.4207
- Gi1 hCB1 (hCB1; Log [Compound] (M) -6.72585): 73.3178
- GoB hCB1 (hCB1; Log [Compound] (M) -6.72585): 75.088
- Gi1 hCB1 (hCB1; Log [Compound] (M) -7.14267): 49.9
- GoB hCB1 (hCB1; Log [Compound] (M) -7.14267): 54.2273
- Gi1 hCB1 (hCB1; Log [Compound] (M) -7.55284): 26.2355
- GoB hCB1 (hCB1; Log [Compound] (M) -7.55284): 30.9029
- Gi1 hCB1 (hCB1; Log [Compound] (M) -8): 8.645
- GoB hCB1 (hCB1; Log [Compound] (M) -8): 13.9266
- Gi1 hCB1 (hCB1; Log [Compound] (M) -8.22186): 5.331
- GoB hCB1 (hCB1; Log [Compound] (M) -8.22186): 0.7628
- Gi1 hCB1 (hCB1; Log [Compound] (M) -8.39794): 4.128
- GoB hCB1 (hCB1; Log [Compound] (M) -8.39794): 8.262
- Gi1 hCB1 (hCB1; Log [Compound] (M) -8.68787): 4.853
- GoB hCB1 (hCB1; Log [Compound] (M) -8.68787): -0.2442
- Gi1 hCB1 (hCB1; Log [Compound] (M) -9.15521): 1.029
- GoB hCB1 (hCB1; Log [Compound] (M) -9.15521): -1.989
- Gi1 hCB1 (hCB1; Log [Compound] (M) -9.61989): 0.2894
- GoB hCB1 (hCB1; Log [Compound] (M) -9.61989): -0.46
- Gi1 hCB1 (hCB1; Log [Compound] (M) -10.0969): -1.6068
- GoB hCB1 (hCB1; Log [Compound] (M) -10.0969): -4.219
- Gi1 hCB1 (hCB1; Log [Compound] (M) -10.5529): 0.5669
- GoB hCB1 (hCB1; Log [Compound] (M) -10.5529): -0.6758
- Gi1 hCB1 (hCB1; Log [Compound] (M) -11.0177): -0.651
- GoB hCB1 (hCB1; Log [Compound] (M) -11.0177): -1.557
- Gi1 hCB1 (hCB1; Log [Compound] (M) -11.4949): -0.6201
- GoB hCB1 (hCB1; Log [Compound] (M) -11.4949): 1.626
- Gi1 hCB1 (hCB1; Log [Compound] (M) -11.9208): -0.3581
- GoB hCB1 (hCB1; Log [Compound] (M) -11.9208): -0.04642
- Gi1 hCB1 (hCB1; Log [Compound] (M) -12.3979): 0.9369
- GoB hCB1 (hCB1; Log [Compound] (M) -12.3979): 0.02551
- Gi1 hCB1 (hCB1; Log [Compound] (M) -12.8861): 1.631
- GoB hCB1 (hCB1; Log [Compound] (M) -12.8861): 1.572
- Gi1 hCB1 (hCB1; Log [Compound] (M) -13): -0.9439 and 1.0911
- GoB hCB1 (hCB1; Log [Compound] (M) -13): -0.55 and -0.478
- pEC50 [95% CI] (hCB1; hCB1 Gi1): 7.2 [7.1 – 7.2]
- Emax [95% CI] (hCB1; hCB1 Gi1): 95 [93 – 96]
- pEC50 [95% CI] (hCB1; hCB1 GoB): 7.2 [7.2 – 7.3]
- Emax [95% CI] (hCB1; hCB1 GoB): 100 [99 – 101]
- pEC50 [95% CI] (hCB1; hCB1 Gz): 6.5 [5.9 – 7.0]
- Emax [95% CI] (hCB1; hCB1 Gz): 162 [125 –199]
- EC50 (hCB1; hCB1 Gi1): 65.5 nM
- EC50 (hCB1; hCB1 GoB): 60.9 nM
- EC50 (hCB1; hCB1 Gz): 339 nM
- pKi [95% CI] (CB1 (rCB1); rCB1): 6.6 [6.4 – 6.8]
- Ki (CB1 (rCB1); read-out: Ki [95% CI], rCB1, [3H]-CP-55,940): 251 nM
